In patent US12703851B2, “Cell culture methods” (The University of Massachusetts, priority 2019, dated 2026):
Entries after “also recorded” stand apart in the source; their conditions may differ.

How the values were obtained:
Format in all cases: cell-based, Chinese hamster
CHO K-1 = assay: Batch culture spiking of metabolites at end-of-culture concentration; details: spiked at end-of-culture concentration, 6 days batch culture
Experimental: CHO K-1 industrial standard batch process: NIH CHO-K1 cell line is cultured for 6 days, with 6 mM glutamine supplement on the inoculation day. The working volume is 30 mL in 125 mL shake flasks, and the inoculation cell density is 0.5 million cells/mL. The parameters for the shaking incubator are: 125 RPM, and 5% CO2.
Cells were exposed to the identified inhibitory metabolites of Table 1 at their end-of-culture concentration for 6 days in batch culture. […] All of the inhibitory metabolites decreased the antibody productivity (FIG. 4).

CHO-K1 cell line = assay: Fed-batch spiking test, IgG glycan profile by HPLC with Glycan Column; details: for impact on G1F formation: versus control group
Experimental: Industrial standard Fed-batch process: CHO-K1 cell line is cultured in corresponding media. Feed for 14 days, with 6 mM glutamine supplement on the inoculation day. The working volume is 30 mL in 125 mL shake flasks, and the inoculation cell density is 0.5 million cells/mL. The parameters for the shaking incubator are: 125 RPM, and 5% CO2. The feeding strategy is 10% corresponding feed everyday starting from day 3 to day 13.
In the standard industrial fed-batch process, cells were exposed to the inhibitors for a long period of time. This experiment mimics the therapeutic antibody production process, and spikes the inhibitors at their end-of-culture cellular concentration. ICA was confirmed as a known inhibitor and was used as a positive inhibitor control. Mixture condition excluded ICA and included AA, HICA, CMP, MSA, TRI, NAP. The process lasted for 14 days, and starting from day 6, the cell density under the inhibitor conditions were lower than the negative control batch.
IgG titer was measured by HPLC with a Protein A column. Product quality was quantified by the IgG glycan profile, which was measured by HPLC with a Glycan Column.

CHO-S cells = assay: Inhibitory metabolite accumulation in transiently transfected CHO-S subclones (LC-MS); parameters: dose or concentration left out as unconfirmed; details: 6 days
Experimental: FIG. 17A-G are graphs showing inhibitory metabolite accumulation in different subclones. Accumulation concentration of metabolites shown here: FIG. 17A, CMP; FIG. 17B, GMP; FIG. 17C, HICA, FIG. 17D, MSA, FIG. 17E, NAP, FIG. 17F, TAA; and FIG. 17G, TRI. The study was divided into […] unique subclone groups. […] A negative control was included where no plasmid transfection occurred. Each subclone was cultured for 6 days at which time cells and cell culture supernatant were collected. Cells for both the control and transfection subclones were derived from the same culture to eliminate variation in growth cycle and other culture conditions. Quantification of inhibitory metabolites accumulation was performed through LC-MS. Bars, mean±s.e.m.; n=3, *p<0.05, **p<0.01, ***p<0.001. Statistics by two-tailed t-test. LC-MS/MS method for metabolites profiling: Standards of metabolites were purchased from Sigma Aldrich (St. Louis, MO) and used for identification of wasted inhibitor metabolites. Operating parameters and samples preparation protocol were followed to a previously published protocol. Quantification of expression level of transfected gene of interest through qPCR. The expression level of seven different genes transfected into CHO-S cells were evaluated using relative quantification (RQ) compared to the calibrator. The study was divided into eight unique subclone groups. […] A negative control was included in the study where no genetic engineering work involving plasmid transfection occurred. Each subclone was cultured for 6 days. Cells for both the control and transfection subclones were derived from the same culture to eliminate variation in growth cycle and other culture conditions. […] Gene functionality study through metabolic pathway analysis. As mentioned previously, HICA is generated as the downstream metabolite from the metabolism of leucine in mammalian cells, of which cellular biochemical activities are regulated by ADH5 and BCAT1 enzymes. […] A negative control was included in the study where no genetic engineering work involving plasmid transfection occurred.

## O=C(O)C=C(CC(=O)O)C(=O)O [AA, aconitic acid]
CHO K-1
  cell density versus control group: lower cell density than the control group
CHO-K1 cell line; Day 14, versus control group
  impact on G2F formation: totally inhibits the G2F formation; also recorded: G2F was not formed
CHO-K1 cell line
  impact on G1F formation: higher impact on G1F formation

## Nc1ccn([C@@H]2O[C@H](COP(=O)(O)O)[C@@H](O)[C@H]2O)c(=O)n1 [CMP, cytidine-5′-monophosphate]
CHO K-1
  cell density versus control group: lower cell density than the control group
CHO-K1 cell line
  impact on G1F formation: higher impact on G1F formation
CHO-S cells; Got1 transfected clone
  decrease in accumulation versus control: 35.68%
CHO-S cells; Hoga1 transfected clone
  decrease in accumulation versus control: 33.59%
CHO-S cells; Slc35a1 transfected clone
  decrease in accumulation versus control: 50.63%

## CC(C)CC(O)C(=O)O (stereo not drawn) [HICA, α-hydroxyisocaproic acid]
CHO-K1 cell line
  impact on G1F formation: higher impact on G1F formation
CHO-S cells; Adh5 transfected clone
  decrease in accumulation versus control: 86.13%
CHO-S cells; Bcat1 transfected clone
  decrease in accumulation versus control: 72.31%
CHO-S cells; Hadhb transfected clone
  decrease in accumulation versus control: 27.05%
CHO-S cells; Slc35a1 transfected clone
  decrease in accumulation versus control: 73.51%

## O=C(O)c1c[nH]c2ccccc12 [ICA, indole-3-carboxylic acid, reference compound]
CHO K-1
  cell density versus control group: lower cell density than the control group
CHO-K1 cell line
  impact on G1F formation: higher impact on G1F formation

## CC(CC(=O)O)C(=O)O (centres unmarked) [MSA, methylsuccinic acid]
CHO-K1 cell line
  impact on G1F formation: higher impact on G1F formation

## C[n+]1cccc(C(=O)[O-])c1 [TRI, trigonelline]
CHO-S cells; Bcat1 transfected clone
  decrease in accumulation versus control: 42.96%
CHO-S cells; Cat transfected clone
  decrease in accumulation versus control: 27.8%
CHO-S cells; Got1 transfected clone
  decrease in accumulation versus control: 40.43%
CHO-S cells; Hadhb transfected clone
  decrease in accumulation versus control: 35.38%
